Entries after “also recorded” stand apart in the source; their conditions may differ.
Key:
glioma cells = test: Glioma cell assays combined (scratch and sphere, several cell lines); format: cell-based, human; conditions: 100 μM; for Effect on glioma cells, overall: multiple assays and cell lines
Protocol: FIG. 2 illustrates a schematic of a functional screening approach. Seventy-four PTPμ wedge-targeted compounds and 2 blinded DMSO samples were received from Atomwise and screened at 100 μM in scratch wound healing assays using two glioma cell lines (LN229 and U87). Selected active and control compounds were taken into secondary assays (Gli36 scratch and LN229 and Gli36 sphere formation and growth assays). Inhibitors selected as being active in primary and secondary screens were tested for effects on the survival of LN229 and Sf9 cells, and selected glioma-cell inhibitors and activators were screened for effects on Sf9-PTPμ aggregation, a highly specific test for PTPμ function.
(§1) Cells were seeded at a density of 2.7×10^4 cells per well into the internal wells of Incuyte1 Imagelock 96-well plates (Essen BioScience Inc., Ann Arbor, MI) and cultured overnight to form monolayers. Monolayers were wounded with an IncuCyte1 96-well Woundmaker Tool per the manufacturer's instructions. The outer wells were filled with PBS to buffer edge effects, and then the wounded monolayers were cultured in 100 μl of fresh media with compounds or DMSO (2×replicates at 100 μM or 1%, respectively) at 37 °C and 5% CO2. Images were captured every 4 hrs. using an Incucyte live cell imaging system equipped with the Scratch Wound Module. Scratch wound widths were calculated, per the manufacturer's instructions, at TO and at endpoint (typically T12 for LN229 and U87 cells and T8 for Gli36), which was taken as the last timepoint before wound closure. The cell migration distance was calculated from scratch widths [(T0Width−TendpointWidth)/2] and normalized to the average distance migrated by the DMSO controls. Values are presented as average percentages±standard errors of the means (s.e.m.). The majority of compounds were screened with an n of two, but the n for priority hits ranges from 2-6.
(§2) Cells were seeded at a density of 7500 cells per well into the internal wells of 96-well plates coated with 0.75% (wt/vol) PVA as previously described. Compounds were added (2×replicates per treatment) at the indicated final concentrations, and control wells were treated with matching concentrations of DMSO. The external wells of the plates were filled with PBS to buffer against edge effects, and the cells were incubated at 37 °C and 5% CO2 for 7 days. A Leica CTR6500 microscope fitted with an automated stage was used to capture brightfield images on day 1 and day 7, and sphere footprint areas were measured using Image J (v1.52a http://imagej.nih.gov/ij) as previously described. To quantify the effects of the compounds on day 1, the footprint areas of the treated wells were normalized to the average area of the matched DMSO control wells. To quantify the effects of the compounds on sphere growth, the change in the sphere footprint areas was calculated ([…]) and then normalized to the average size change of the matched DMSO samples. All values are presented as average percentages±s.e.m.

LN229 cells [1] = test: LN229 scratch wound healing assay; format: cell-based, human; conditions: for activity at 100 µM: Homo sapiens, LN-229, normalized to DMSO controls, read-out: LN229 scratch wound closure relative to DMSO controls
Description: FIGS. 3(A-D) illustrate a histogram and images of the LN229 scratch wound assays. A. Histogram showing the effects of all soluble wedge-targeted compounds on LN229 scratch wound closure. Cell movement into the scratches was quantified from scratch wound widths at the start and end of the assay and normalized to the average movement of cells in the unblinded DMSO control samples. Data is presented as average percentages±standard error of the means (s.e.m.), and compound bar codes are shown on the x-axis. The majority of compounds were screened with an n=2. Some priority compounds were screened with 3-6 replicates. Representative endpoint images of samples treated with DMSO (B) and two priority inhibitors (C and D) are shown. The relative migration distances for each example are indicated.
as §1
Scratch assays measure the ability of cells to migrate into a wound and close it creating a monolayer.

LN229 cells [2] = test: LN229 glioma sphere formation and growth assay; format: cell-based, human; conditions: 100 μM, in words; for Effect on LN229 sphere formation: day 1; for Effect on LN229 sphere growth: day 7
Protocol: FIGS. 5(A-E) illustrate a histogram and images showing the results of the LN229 sphere formation and growth assays. Selected inhibitors, activators, and control compounds identified in LN229 and/or U87 scratch wound closure assays were retested at 100 μM in a secondary assay for glioma cell (LN229) sphere formation and growth. A. Histogram showing the effects of the indicated compounds on sphere formation. On day 1, sphere footprint areas were determined and normalized to the average footprint area of the unblinded vehicle-treated controls. On day 1, a larger footprint area indicates inhibition of aggregation. B. Histogram showing the effects of the indicated compounds on sphere growth. On day 7, the changes in sphere footprint areas were calculated and normalized to the average size change of the unblinded vehicle-treated controls. On day 7, a smaller value indicates reduced growth. […] Data is presented as percentages±s.e.m. of 2-4 replicates. Representative images of samples treated with DMSO (C) and two priority inhibitors (D and E) are shown. Relative day 1 footprint areas and day 7 growth measurements are indicated for each example.
FIGS. 15(A-D) illustrate a histogram and images of titration of selected compounds on LN229 sphere formation and growth. LN229 cells were plated onto non-adherent surfaces and treated with the indicated compounds at 100, 50, and 25 μM. A. On day 1, sphere footprint areas were determined and normalized to the average footprint area of the unblinded vehicle-treated controls. On day 1, a larger foot-print area indicates inhibition of aggregation. B. On day 7, the changes in sphere footprint areas were calculated and normalized to the average size change of the unblinded vehicle-treated controls. On day 7, a smaller value indicates reduced growth. […] Data is presented as percentages±s.e.m. The initial test at 100 μM and the follow-up at that dose with titration is shown. Each bar is the average of 2 replicates. Representative day 1 (C) and day 7 (D) images of samples treated with two priority inhibitors are shown. Relative day 1 sphere footprint areas and day 7 growth for each example are indicated.
as §2
We tested the effects of twenty-four compounds (11 flagged as inhibitory, 4 as stimulatory, and nine as inert in the initial scratch-wound screen, FIG. 2) on the ability of LN229 cells to mediate cell-cell adhesion and grow in 3D culture on non-adherent surfaces. To quantify sphere formation (FIG. 5A), the footprint areas of aggregates were measured on day 1 and normalized to that of the DMSO control. At this time point, a larger footprint size (>120%) indicates inhibition, i.e., the failure of cells to form a compact aggregate. To quantify sphere growth (FIG. 5B), we calculated the percent changes in sphere footprint areas between day 1 and day 7 and normalized them to that of the DMSO controls.

PTPμ = PTPμ (Homo sapiens, UniProt P28827); test: PTPμ-dependent Sf9 aggregation assay; format: cell-based; conditions: 100 μM; 20 min pretreatment; in words
PTPμ, sequence (P28827 21-1452): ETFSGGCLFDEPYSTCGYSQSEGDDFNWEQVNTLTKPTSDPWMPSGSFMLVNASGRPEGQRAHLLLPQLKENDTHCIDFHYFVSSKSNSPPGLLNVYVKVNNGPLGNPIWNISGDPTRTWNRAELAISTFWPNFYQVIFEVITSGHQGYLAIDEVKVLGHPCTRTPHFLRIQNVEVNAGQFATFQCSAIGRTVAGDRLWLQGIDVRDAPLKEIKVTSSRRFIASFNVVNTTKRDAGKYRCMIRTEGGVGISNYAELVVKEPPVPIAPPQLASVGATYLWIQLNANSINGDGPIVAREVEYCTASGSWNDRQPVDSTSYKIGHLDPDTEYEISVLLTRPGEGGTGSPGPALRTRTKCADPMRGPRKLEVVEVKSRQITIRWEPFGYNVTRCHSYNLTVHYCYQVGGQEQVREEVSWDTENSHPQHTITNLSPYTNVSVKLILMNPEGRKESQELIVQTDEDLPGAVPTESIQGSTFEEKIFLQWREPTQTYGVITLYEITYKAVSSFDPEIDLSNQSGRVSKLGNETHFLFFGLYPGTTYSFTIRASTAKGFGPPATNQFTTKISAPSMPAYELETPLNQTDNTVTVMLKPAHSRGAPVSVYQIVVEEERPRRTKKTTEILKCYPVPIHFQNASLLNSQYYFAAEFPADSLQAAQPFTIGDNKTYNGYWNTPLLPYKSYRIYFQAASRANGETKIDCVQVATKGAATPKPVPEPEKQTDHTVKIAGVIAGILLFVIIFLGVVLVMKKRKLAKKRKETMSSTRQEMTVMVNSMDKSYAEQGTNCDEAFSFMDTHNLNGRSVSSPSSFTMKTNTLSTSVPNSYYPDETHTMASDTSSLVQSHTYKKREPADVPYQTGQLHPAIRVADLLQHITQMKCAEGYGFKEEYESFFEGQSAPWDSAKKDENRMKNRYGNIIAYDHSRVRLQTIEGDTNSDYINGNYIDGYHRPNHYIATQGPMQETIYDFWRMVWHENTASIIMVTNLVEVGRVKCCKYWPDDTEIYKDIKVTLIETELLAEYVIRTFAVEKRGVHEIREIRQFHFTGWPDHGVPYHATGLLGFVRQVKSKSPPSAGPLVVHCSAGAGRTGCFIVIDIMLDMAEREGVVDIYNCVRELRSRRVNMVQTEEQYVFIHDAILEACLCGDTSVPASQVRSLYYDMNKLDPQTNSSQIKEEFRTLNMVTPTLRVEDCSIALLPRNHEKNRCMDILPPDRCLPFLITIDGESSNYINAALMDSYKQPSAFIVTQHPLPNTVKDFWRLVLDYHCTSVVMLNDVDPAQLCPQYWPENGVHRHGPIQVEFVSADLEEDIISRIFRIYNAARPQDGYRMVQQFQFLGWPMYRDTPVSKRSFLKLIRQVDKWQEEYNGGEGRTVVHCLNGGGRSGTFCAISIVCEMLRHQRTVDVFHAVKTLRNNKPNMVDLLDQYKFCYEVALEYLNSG

U87 cells = test: U87 scratch wound healing assay; format: cell-based, human; conditions: 100 μM
Description: FIGS. 11(A-D) illustrate a histogram and images of the results of the U87 scratch wound assays. A. Histogram showing the effects of all soluble wedge pocket-targeting compounds on U87 scratch wound closure. Cell movement into the scratches was quantified from scratch wound widths at the start and end of the assay and normalized to the average movement of cells in the unblinded DMSO control samples. Data is presented as average percentages±s.e.m., and compound bar codes are shown on the x-axis. Most compounds were screened with an n of 2-4. Representative images of scratch wounds treated with DMSO (A) or two priority inhibitors (C and D) are shown.
as §1

parental Sf9 cells = test: Helix Blue staining of parental Sf9 cells (cell survival); format: cell-based, insect; conditions: 100 μM, 24 h, cells lack PTPμ
Protocol: (§3) FIG. 17 illustrates images showing the effects of prioritized inhibitors on cell survival. LN229 cells were plated onto non-adherent surfaces and cultured in the presence of the indicated compounds (100 μM). On day 1, spheres were stained with Helix Blue to detect dying cells. Parental Sf9 cells (which lack PTPμ) plated onto tissue culture plastic were also grown in the presence of the indicated compounds and, on day 1, stained with Helix Blue. Three compounds appeared to cause a qualitative increase in staining in LN229 spheres. No compound was toxic to Sf9 cells.
(§4) LN229 cells, plated onto non-adherent surfaces as described above, and parental Sf9 cells (without PTPμ), seeded into 96-well flat bottom tissue culture plates, were treated for 24 h with the indicated compounds (100 μM). The cells and spheres were then treated with 5.5 μM Helix Blue (Biolegend, San Diego, CA) and imaged at 10× on a Leica CTR6500 fluorescence microscope.
(§5) The seven penetrant inhibitors were tested to see if they affected the survival of LN229 spheres and parental Sf9 cells (which lack PTPμ) (FIG. 17).

LN229 cells [3] = test: Helix Blue staining of LN229 spheres (cell survival); format: cell-based, human; conditions: 100 μM, 24 h, qualitative
Protocol: as §3, §4, §5

SMILES	Effect on glioma cells, overall (glioma cells)	Effect on LN229 cell morphology in scratch assay (LN229 cells [1]; 100 μM)	activity at 100 µM (LN229 cells [1]) [%]	Effect on LN229 sphere formation (LN229 cells [2])	Effect on PTPμ-dependent Sf9 aggregation / adhesion (PTPμ)	Effect on U87 cell morphology in scratch assay (U87 cells)	Effect on LN229 sphere growth (LN229 cells [2])	Effect on parental Sf9 cell survival (parental Sf9 cells)	Effect on LN229 cell survival / cell death (LN229 cells [3])	Effect on glioma cell migration (glioma cells; scratch assays)
O=C1NC2(CCCC2)C(=O)N1CC(=O)N(Cc1cccs1)c1ccc2c(c1)OCCO2 [Compound 247679515]	highly penetrant inhibitors in glioma cell assays	rounding	< 60	completely blocked sphere formation	not shown to affect PTPμ-mediated aggregation; also recorded: did not affect PTPμ-dependent adhesion	–	–	–	–	–
Cc1cccc(-c2ccc3c(c2)C(=O)N2CCC(NC(=O)COCC(=O)O)C2C(=O)N3)c1C (centres unmarked) [Compound 247685429]	did not affect glioma cells	–	–	–	able to inhibit PTPμ-dependent adhesion; also recorded: able to inhibit PTPμ-mediated aggregation	–	–	–	–	–
CC(C)COc1ccc(C(=O)N2CCNC(=O)C2CC(=O)OC2CCCCC2)cc1 (centres unmarked) [Compound 247682240]	highly penetrant inhibitors	–	< 60	delayed sphere formation	not shown to affect PTPμ-mediated aggregation	pile-up of U87 cells at the edge of the scratch wound	inhibited growth	–	–	–
COc1ccccc1CNC(=O)CC(NC(N)=O)c1cccc(Oc2ccccc2)c1 (centres unmarked) [Compound 247679045]	highly penetrant inhibitors in glioma cell assays	–	< 60	completely blocked sphere formation	not shown to affect PTPμ-mediated aggregation; also recorded: did not affect PTPμ-dependent adhesion	–	–	did not affect parental Sf9 cells	caused a qualitative increase in LN229-cell death	–
CCC1(CC)NC(=O)N(CC(=O)Nc2ccc(Oc3ccccc3)cc2)C1=O [Compound 247682206]	highly penetrant inhibitors; also recorded: able to inhibit glioma cells	–	< 60	delayed sphere formation	PTPμ-dependent adhesion; also recorded: affect PTPμ-mediated aggregation	pile-up of U87 cells at the edge of the scratch wound	inhibited growth	–	–	able to inhibit glioma cell migration
